From PMC9763021, “Comprehensive Assessment of Biomolecular Interactions of Morpholine-Based Mixed Ligand Cu(II) and Zn(II) Complexes of 2,2′-Bipyridine as Potential Anticancer and SARS-CoV-2 Agents: A Synergistic Experimental and Structure-Based Virtual Screening” (Bioinorganic Chemistry and Applications, 2022)

How the values were obtained:
Staphylococcus aureus = test: Agar disc diffusion, strain F; type: cell-based; set-up: (inhibition %): concentration or dose not given beside the values; details: for diameter of the clear zone inhibition: control = 6 mm
Procedure: (§1) In-vitro antimicrobial properties were evaluated for all samples by the agar disc diffusion method towards different fungal and bacterial strains. Additionally, the reported inhibition zone values were comparatively analyzed with the standard antifungal drugs ketoconazole and amphotericin B as well as the standard antibiotic medications streptomycin and amikacin.
(§2) The current research has a curious focus on the in vitro antimicrobial properties of biological systems because these studies are crucial for developing effective antibacterial and antifungal medications. […] It can also be spelled out based on the chelation theory proposed by Overtone and Tweedy. Chelation theory points out that the partial exchanging of the positive charge of the metal center with donor moieties, and overlap of the ligand orbitals will reduce the greater degree of the metal ion's polarity, which ultimately rises the delocalization of π and d electrons over the full chelated ring system. By raising the size of the metal ion due to the retarding of polarization, chelation may also enhance the complexes' lipophilic characteristics, which further stimulate the lipid membrane permeability and break down the bacteria' enzymes responsible for cell wall formation, therefore slowing down the regular cell processes. By preventing the production of cell walls/proteins/DNA, including by obstructing folate metabolism and the cytoplasmic membrane, antimicrobial drugs frequently either fully eliminate microbes or only prevent their cell growth. Additionally, the samples' mode of action may be employed in disrupting the cell's respiration process by forming an H-bond during the morpholine-fused iminic group coordinated with the active metal center of its components, inhibiting proliferation of the cell. […] The difference in the antimicrobial efficacy of some of the compounds towards various microorganisms influences on the impermeability of the cells of the germs or the diversity of ribosomes of the microbes. The % of the inhibition of all substances is estimated from (45) (Table 9).
(§3) (A, B, C, D, and E are represented as gram negative bacteria species Escherichia coli, Salmonella enteric serovar typhi, Salmonella enteric serovar typhi, Pseudomonas aeruginosa, and Shigella flexneri, respectively. F & G are denoted as gram positive bacteria species Staphylococcus aureus and Bacillus cereus. H, I, and J are represented as fungal strains Aspergillus niger, Candida albicans, and Mucor indicus. Standard drugs for bacterial strains: Amikacin & Streptomycin Standard drugs for fungal strains: Ketoconazole and Amphotericin B. [Control (DMSO) = 6 mm].(44) Inhibition %=T–C/T×100, where T and C are represented as the diameter of microbial growth of the sample plates and the control plate (6 mm), respectively. Error limits ±2.5–5.0% (P ≤ 0.05).

Aspergillus niger = test: Agar disc diffusion, strain H; type: cell-based; set-up: (inhibition %): concentration or dose not given beside the values; details: for diameter of the clear zone inhibition: control = 6 mm
Procedure: as §1, §2, §3

Mucor indicus = test: Agar disc diffusion, strain J; type: cell-based; set-up: (inhibition %): concentration or dose not given beside the values; details: for diameter of the clear zone inhibition: control = 6 mm
Procedure: as §1, §2, §3

[1] = test system: Salmonella enteric serovar typhi; test: Agar disc diffusion, strain B; type: cell-based; details: for diameter of the clear zone inhibition: control = 6 mm
Procedure: as §1, §2, §3

[2] = Nitric oxide scavenging assay; type: biochemical; details: for % Inhibition nitric oxide: 546 nm
Procedure: All samples were evaluated for their scavenging ability with the help of UV-visible spectrophotometer at different concentrations of 40, 80, 120, 160, 200, and 240 μM [6, 28]. While performing the antioxidant properties for the DPPH, hydroxyl, superoxide, and nitric oxide radical scavenging, the absorbance at 517, 230, 590, and 546 nm, respectively, was closely observed. In addition, the observed IC50 values of all samples were compared with ascorbic acid.
The diffusible nitric oxide free radical is a crucial chemical mediator, which assists in overcoming diverse chronological human diseases. The NO free radical scavenging potential for all test samples was also carried out at 546 nm. It monitored the alterations in electronic absorption intensity of the nitric oxide radical inhibition outcome concerning the sample concentrations. When the test sample concentration rises, the nitric oxide free inhibition effectiveness also increases. The measured % of nitric oxide radical scavenging capability for all samples at 240 μM was obtained in the subsequent order (ascorbic acid) 72.73 > (1a) 65.47 > (2a) 58.43 > (HL) 51.62.

Shigella flexneri = test: Agar disc diffusion, strain E; type: cell-based; set-up: (inhibition %): concentration or dose not given beside the values; details: for diameter of the clear zone inhibition: control = 6 mm
Procedure: as §1, §2, §3

BSA = BSA (Bos taurus, UniProt P02769); test: FRET computation, donor (BSA) - acceptor (compound); type: binding, bovine; set-up: kET (rate of energy transfer): unit not given here; details: for J, spectral overlap integral: BSA donor, compound acceptor; for B (brightness of complex-BSA system): free BSA = 6,573.60

SMILES	(inhibition %) (Staphylococcus aureus)	diameter of the clear zone inhibition (Staphylococcus aureus)	(inhibition %) (Aspergillus niger)	diameter of the clear zone inhibition (Aspergillus niger)	(inhibition %) (Mucor indicus)	diameter of the clear zone inhibition (Mucor indicus)	(inhibition %) [1]	diameter of the clear zone inhibition [1]	% Inhibition nitric oxide ([2]; 40 µM)	% Inhibition nitric oxide ([2]; 80 µM)	% Inhibition nitric oxide ([2]; 120 µM)	% Inhibition nitric oxide ([2]; 160 µM)	% Inhibition nitric oxide ([2]; 200 µM)	% Inhibition nitric oxide ([2]; 240 µM)	(inhibition %) (Shigella flexneri)	diameter of the clear zone inhibition (Shigella flexneri)	E (efficiency of energy transfer) (BSA)	R0 (Förster radius) (BSA)	kET (rate of energy transfer) (BSA)	r (donor-acceptor separation) (BSA)	further results
[Cu+2].[O-]c1ccccc1N=Cc1ccc(N2CCOCC2)cc1.[O-]c1ccccc1N=Cc1ccc(N2CCOCC2)cc1.c1ccc(-c2ccccn2)nc1 [(1a), [Cu(L)2(bpy)]]	50%	12 mm	45%	11 mm	50%	12 mm	40%	10 mm	17.07%	24.95%	35.06%	42.14%	51.35%	65.47%	45%	11 mm	0.5769	2.4090 nm	13.6340	2.2877 nm	IC50 [2]: 200 µM; J, spectral overlap integral (BSA): 0.7607 × 10^−14 (LM^−1·cm^3); B (brightness of complex-BSA system) (BSA): 5187.78 M⁻¹ cm⁻¹
[O-]c1ccccc1N=Cc1ccc(N2CCOCC2)cc1.[O-]c1ccccc1N=Cc1ccc(N2CCOCC2)cc1.[Zn+2].c1ccc(-c2ccccn2)nc1 [(2a), [Zn(L)2(bpy)]]	45%	11 mm	33%	09 mm	60%	15 mm	33%	09 mm	14.37%	21.59%	28.87%	37.69%	44.73%	58.43%	45%	11 mm	0.5615	2.2770 nm	10.4206	2.1851 nm	J, spectral overlap integral (BSA): 0.5425 × 10^−14 (LM^−1·cm^3); B (brightness of complex-BSA system) (BSA): 4642.53 M⁻¹ cm⁻¹
Oc1ccccc1N=Cc1ccc(N2CCOCC2)cc1 [(HL), 2-(4-morpholinobenzylideneamino)phenol]	33%	09 mm	40%	10 mm	45%	11 mm	33%	09 mm	11.42%	18.26%	24.28%	33.21%	40.53%	51.62%	57%	14 mm	0.3462	2.4400 nm	5.2957	2.7127 nm	J, spectral overlap integral (BSA): 0.8215 × 10^−14 (LM^−1·cm^3); B (brightness of complex-BSA system) (BSA): 5339.79 M⁻¹ cm⁻¹
